Key:
[1] = system: Staphylococcus aureus Clinical/MRSA; test: Broth microdilution MIC; assay type: cell-based; conditions: Staphylococcus aureus, MRSA, read-out: Minimum Inhibitory Concentrations (MIC)
[2] = system: Bacillus cereus ATCC 14579; test: Broth microdilution MIC; assay type: cell-based; conditions: ATCC14579, read-out: Minimum Inhibitory Concentrations (MIC), Bacillus cereus ATCC 14579
[3] = system: Enterococcus faecalis ATCC 29212; test: Broth microdilution MIC; assay type: cell-based; conditions: Enterococcus faecalis, ATCC29212, read-out: Minimum Inhibitory Concentrations (MIC), Enterococcus faecalis ATCC 29212
[4] = system: HEK293 cells; test: Cytotoxicity MTS assay; assay type: cell-based, human; conditions: Homo sapiens, HEK293, 48 h, read-out: IC50 HEK293
Description: (§1) The cytotoxic potential of the selected drug candidates was evaluated using the CellTiter 96® AQueous One Solution Cell Proliferation Assay (Promega, Madison, WI, USA), following the manufacturer’s protocol. Human cell lines RPE1 and HEK293 were cultured at 37 °C in a humidified incubator with 5% CO2. Test compounds were dissolved in the appropriate growth medium and serially diluted across a range of concentrations in 96-well microtiter plates. Each well was seeded with 5000 cells and incubated for 48 h under standard culture conditions. Following this incubation period, 20 µL of MTS reagent was added to each well, and the plates were further incubated for 3 h to allow for color development. Absorbance was measured at 490 nm using a microplate reader to determine cell viability. Cytotoxicity was quantified as the half-maximal inhibitory concentration (IC50), defined as the concentration of compound that reduced cell viability by 50%. […] IC50 values were calculated using GraFit 6.0 software by plotting compound concentration against absorbance and fitting the data to a sigmoidal dose–response curve.

[5] = system: RPE1 cells; test: Cytotoxicity MTS assay; assay type: cell-based, human; conditions: Homo sapiens, RPE-1, 48 h, read-out: IC50 RPE1
Description: as §1

[6] = system: Listeria monocytogenes ATCC 7644; test: Broth microdilution MIC; assay type: cell-based; conditions: Listeria monocytogenes, ATCC7644, read-out: Minimum Inhibitory Concentrations (MIC), Listeria monocytogenes ATCC 7644
[7] = system: Staphylococcus aureus ATCC 25923; test: Time-kill kinetics assay; assay type: cell-based
Description: To assess the temporal dynamics of bacterial viability upon exposure to the test compounds, a time-kill kinetics assay was performed using the Gram-positive reference strain Staphylococcus aureus ATCC 25923. An overnight culture of the strain was subcultured into fresh, pre-warmed Mueller–Hinton broth (MHB) and incubated under aerobic conditions at 37 °C with agitation (220 rpm) until reaching the early exponential growth phase. The bacterial suspension was then standardized to an initial concentration of approximately 5 × 10^5 CFU/mL. […] Wells containing untreated bacterial cultures served as growth controls. Immediately after mixing, a 10 µL sample from each well was withdrawn, diluted in 990 µL of MHB, and serially diluted tenfold up to 10^−6. From each dilution, 20 µL was plated on MHB agar using a sterile loop to determine the initial bacterial count (time zero). The treated plates were incubated at 37 °C, and additional samples were collected at predetermined time points (2, 4, 6, 8, 12, and 24 h) following the same dilution and plating protocol. After 24 h of incubation at 37 °C, colonies were counted, and viable bacterial counts were expressed as log10 CFU/mL for each time point. Bactericidal activity was evaluated by plotting the log10 CFU/mL over time, providing a dynamic profile of the compound’s killing kinetics.

[8] = system: Salmonella enterica (food isolate); test: Broth microdilution MIC; assay type: cell-based; conditions: read-out: Minimum Inhibitory Concentrations (MIC)
[9] = system: Staphylococcus aureus ATCC 33591 (methicillin-resistant); test: Broth microdilution MIC; assay type: cell-based; conditions: Staphylococcus aureus, ATCC33591, read-out: Minimum Inhibitory Concentrations (MIC)
[10] = system: Staphylococcus aureus ATCC 25923; test: Time-resolved growth kinetics; assay type: cell-based; conditions: subinhibitory concentrations, relative to 2(QC16)3 and 2(QC16)6
Description: (§2) The antimicrobial activity of the candidate compounds against Staphylococcus aureus ATCC 25923 and Listeria monocytogenes ATCC 7644 was further evaluated using a time-resolved growth kinetics assay in 96-well microtiter plates. Overnight bacterial cultures were diluted in fresh, pre-warmed Mueller–Hinton broth (MHB) and incubated at 37 °C with orbital shaking at 220 rpm. Upon reaching the exponential growth phase (OD600 = 0.3–0.5), cultures were standardized to a final concentration of 5 × 10^4 CFU/mL. Aliquots (50 µL) of the standardized inoculum were dispensed into wells containing either no antimicrobial agent (negative control) or the test compounds at concentrations corresponding to ½ MIC and MIC. Bacterial growth was continuously monitored over a 24 h period by measuring absorbance at 595 nm every 10 min using a Bio-Tek EL808 microplate reader (Winooski, VT, USA). Growth kinetics were assessed by comparing the optical density profiles of treated samples against the untreated control. Each experiment was performed independently twice, with all conditions tested in triplicate. Data are presented as the mean values of these replicates.

[11] = system: Escherichia coli ATCC 25922; test: Broth microdilution MIC; assay type: cell-based; conditions: Escherichia coli, ATCC25922, read-out: Minimum Inhibitory Concentrations (MIC)
[12] = system: Pseudomonas aeruginosa ATCC 27853; test: Broth microdilution MIC; assay type: cell-based; conditions: Pseudomonas aeruginosa, ATCC27853, read-out: Minimum Inhibitory Concentrations (MIC)
[13] = system: Staphylococcus aureus ATCC 25923; test: Broth microdilution MIC; assay type: cell-based; conditions: Staphylococcus aureus, ATCC25923, read-out: Minimum Inhibitory Concentrations (MIC)
[14] = system: Staphylococcus aureus ATCC 25923; test: Biofilm inhibition assay (crystal violet); assay type: cell-based
Description: (§3) The ability of the candidate compounds to inhibit biofilm formation was evaluated by determining the minimum biofilm inhibitory concentration (MBIC) against the biofilm-forming strains Staphylococcus aureus ATCC 25923 and Listeria monocytogenes ATCC 7644. Overnight bacterial cultures were diluted in fresh, pre-warmed Mueller–Hinton broth (MHB) and incubated at 37 °C with constant shaking at 220 rpm. Once the cultures reached the exponential growth phase (OD600 = 0.3–0.5), they were standardized to a final concentration of 4 × 10^6 CFU/mL.
(§4) Plates were incubated at 37 °C for 24 to 48 h, depending on the bacterial strain. After incubation, the planktonic cells were carefully aspirated to preserve the integrity of the biofilm layer. Wells were gently rinsed with sterile ultrapure Milli-Q water and air-dried at 60 °C for 1 h to fix the biofilms. Biofilm formation was quantified using a crystal violet (CV) staining method. Wells were stained with 100 µL of 0.1% CV solution and incubated at room temperature for 1 h. Excess dye was removed by rinsing with sterile ultrapure Milli-Q water, followed by air-drying. Bound CV was solubilized with 100 µL of 70% ethanol and incubated for 30 min. The solubilized dye was transferred to a fresh plate, and absorbance was measured at 595 nm using a microplate reader (Bio-Tek EL808, Winooski, VT, USA). Absorbance values were directly proportional to biofilm biomass. Untreated bacterial cultures served as positive controls for biofilm formation, while sterile MHB served as the negative control.

[15] = system: Listeria monocytogenes ATCC 7644; test: Biofilm inhibition assay (crystal violet); assay type: cell-based; conditions: Listeria monocytogenes, ATCC7644, read-out: biofilm inhibition
Description: as §3
as §4, with “Aliquots (50 µL) of the standardized bacterial suspension were inoculated into 96-well microtiter plates containing the test compounds at final concentrations of 100, 50, 25, and 12.5 µg/mL. Plates” for “Plates”

[16] = system: Listeria monocytogenes ATCC 7644; test: Time-resolved growth kinetics; assay type: cell-based; conditions: MIC and ½ MIC
Description: as §2

| Structure (SMILES) | MIC [1] [µM] | MIC [2] [µM] | MIC [3] [µM] | IC50 [4] [µM] | IC50 [5] [µM] | MIC [6] [µM] | MIC [8] [µM] | MIC [9] [µM] | MIC [11] [µM] | MIC [12] [µM] | MIC [13] [µM] | other results |
| --- | --- | --- | --- | --- | --- | --- | --- | --- | --- | --- | --- | --- |
| CCCCCCCCCCCCCCNC1C[N+]2(CCCCCC[N+]34CCC(CC3)C(NCCCCCCCCCCCCCC)C4)CCC1CC2 (racemic) [2(QC14)6, (±)-1,1′-(Hexane-1,6-diyl) bis(3-(tetradecylamino)quinuclidinium) dibromide] | 75 | 75 | 38 | 42 | 61 | 19 | 75 | 19 | 19 | > 75 | 38 | time to rapid bactericidal activity ([7]; S. aureus ATCC 25923): ≤ 3 h; time to complete killing ([7]; S. aureus ATCC 25923, 2 × MIC): 2 h; growth curve slope in exponential phase [10]: shallower growth curve slope; biofilm inhibition ([14]; S. aureus ATCC 25923, 6.25 µg/mL): 13%; biofilm inhibition ([14]; S. aureus ATCC 25923, 12.5 µg/mL): 15%; biofilm inhibition ([14]; S. aureus ATCC 25923, 25 µg/mL): 34%; biofilm inhibition ([14]; S. aureus ATCC 25923, 50 µg/mL): remained effective; biofilm inhibition ([14]; S. aureus ATCC 25923, 100 µg/mL): > 90% |
| CCCCCCCCCCCCCCCCNC1C[N+]2(CCCC[N+]34CCC(CC3)C(NCCCCCCCCCCCCCCCC)C4)CCC1CC2 (racemic) [2(QC16)4, (±)-1,1′-(Butane-1,4-diyl) bis(3-(hexadecylamino)quinuclidinium) dibromide] | 75 | > 75 | 38 | 25 | 34 | 9 | 75 | 9 | 19 | > 75 | 75 | inhibition at 6.25 µg/mL [15]: > 50%; inhibition at 12.5 µg/mL [15]: > 70%; inhibition at 25 µg/mL [15]: > 90%; inhibition at 50 µg/mL [15]: > 90%; inhibition at 100 µg/mL [15]: 92%; effect on bacterial growth [16]: pronounced inhibitory effect |
